Experimental data reported in patent publication EP3248604A1, “AGENTS FOR MODULATION OF WNT-TCF SIGNALLING AND USES THEREOF” (UNIVERSITE DE GENEVE, priority 2016, dated 2017).

Legend:
[1] = test system: CYCLIN D1; experiment: Western blot of CYCLIN D1 in DLD1 cells; assay type: cell-based, human; settings: 5 µM CAP2 (batch 3), vs DMSO
Protocol: Western blot performed according to standard methods.
The effect of CAP2 on WNT-TCF signaling the levels of direct TCF target CYCLIN D1 were measured since it is useful to measure TCF response (Melotti et al., 2014, sura).

[2] = test system: DLD1 xenografts; experiment: DLD1 colon cancer xenograft in Nude mice; assay type: in vivo
Protocol: 0.5x10^6 DLD1/ GFP^+ (cells expressing green fluorescent protein) cells were injected per flanks into 6 week-old female Nude mice (Janvier Labs). CAP2 (10mg/kg) complexed with cyclodextrine as vehicle, or vehicle alone, were injected daily intra-peritoneally (IP) once the tumors were palpable (25-50 mm^3). Tumor volumes were measured every other day with a caliper. Animals were sacrificed at the end of experiment and tumors harvested.
CAP2 from four independent batches supplied by Analyticon Discovery was dissolved in DMSO and suspended in 45% beta-cyclodextrin. 45% beta-cyclodextrin was used as vehicle for controls. 150µl of drug or vehicle alone was administered per mouse daily.
GFP^+ DLD1-engrafted mice were treated with cyclodextrin-conjugated CAP2 at 10mg/kg via IP […] starting at the time when tumors were palpable. […] Analyses of gene expression using human-specific primers in treated tumors (using the excised area where remnant DLD-GFP^+ cells could be found) confirmed the repression of human AXIN2, ASCL2 and LGR5 (Table 11).

[3] = test system: Ls174T cells; experiment: Clonal spheroid assay, Ls174T; assay type: cell-based, human; settings: Ls174T pretreated at 5µM; after three passes
Protocol: (§1) Cells were treated with different concentrations of compounds for 16h in 2D adherent culture, washed, harvested and plated in suspension with serum-free DMEM-F12 media with B27 supplement (1:50 dilution) at 1 cell/well in 96-well format in triplicates. Plated cells were monitored to ensure the presence of single cells in each well and spheroids counted and photographed after 10 days for each round.
(§2) To directly test for a long-lasting repression of WNT-TCF targets by CAP2 clonogenic properties of cancer stem cells were tested. DLD1 and LS174T cells were first treated with CAP2 in 2D culture in vitro followed by removal of the drug, washing with PBS, and plating under non-adherent 3D conditions for clonal spheroid growth in the absence of the drug. After primary spheroid growth, the spheroids were dissociated and replated as single cells for secondary and subsequent clonogenic spheroid formation, also in the absence of the compound of the invention. As negative control DMSO-treatment was used.

[4] = test system: DLD1 cells; experiment: Clonal spheroid assay, DLD1; assay type: cell-based, human; settings: DLD1 pretreated in 2D; normalized over DMSO controls (Figure 11A)
Protocol: as §1, §2

[5] = test system: CC14 cells; experiment: Epithelial island morphology of CC14 cells; assay type: cell-based, human; settings: 1 µM, 24h
Protocol: Similar phenotypes were only observed at 10 µM of CAP1 or 5 µM of CAP3. CAP2 was thus chosen for further detailed analyses.

[6] = test system: CC14 cells; experiment: Live imaging cell proliferation (growth curves); assay type: cell-based, human; settings: 150 nM, vs DMSO
Protocol: Primary colon cells CC14 were cultured in DMEM-F12 with 10% FBS under standard in vitro conditions.
Live imaging and quantification of total cell mass was performed using a Widefield plate reader, ImageXpress XL with an inbuilt temperature and CO2 controller, and a CoolSnap HQ camera (Photometrics).

Question: CC1=C(C)C(=O)O[C@@H]([C@](C)(O)[C@]2(O)CC[C@@]3(O)[C@@H]4CC=C5C=CCC(=O)[C@]5(C)[C@H]4CC[C@]23C)C1 [CAP2] was tested. Which “level of CYCLIN D1 (Western blot)” value [1] did it give?
Answer: decrease in the level of TCF target CYCLIN D1

Question: And the side effects ([2]; DLD1 xenograft, Nude mice, 10mg/kg IP)?
Answer: without any visible side effects

Question: What about the tumor growth ([2]; DLD1 xenograft, Nude mice, cyclodextrin-conjugated CAP2 10mg/kg IP, vs cyclodextrin carrier) of the same compound?
Answer: blockade of tumor growth

Question: What about the “number of regressed tumors that re-grew” value ([2]; four DLD1 regressed tumors, 90 days following drug removal) of the same compound?
Answer: one

Question: And the “clonogenic cancer stem cells in serial spheroid assays” value [3]?
Answer: exhaustion of clonogenic cancer stem cells

Question: What about the “primary 3D clonal spheroids” value [4] of the same compound?
Answer: dose-dependent decrease in primary spheroids

Question: And the epithelial island morphology [5]?
Answer: totally disrupted

Question: And the “effect on cell growth (growth curves)” value [6]?
Answer: growth repressive effect
